Results: patent publication US10292396B2, “Methods for assessing repellant quality of organic materials and methods and compositions for repelling arthropods” (priority 2011, dated 2019)

Experiments:
[1] = test system: Aedes aegypti; conditions: 25 μmol/cm^2, Katritzky data; cited from earlier work
[2] = target: acetylcholoinesterase (Homo sapiens, UniProt P22303); conditions: in humans, recent study; cited from earlier work
[3] = in vivo; cited from earlier work
[4] = test system: Aedes aegypti; test: protection time assay for mosquito repellency; assay type: in vivo; conditions: standardized to 25 μmol/cm^2; assigned, not measured
Protocol: In two recent studies, 34 N-acylpiperdine and 38 carboxamide mosquito repellent candidates were synthesized and compared for their effectiveness. […] The mode of repellency for all of these compounds is unknown. As the N-acylpiperdines and some of the carboxamides are larger and likely have a lower vapor pressure than DEET, it is possible that the increased protection times of these compounds is due to a slower evaporation rate.
As these odors were tested using different approaches, a single unit of measure was needed to standardize them for training. Since the largest proportion of odors was measured in protection time, all odors were converted into this single standard of protection time in days to match with the Katritzky data at a concentration of 25 μmol/cm^2. Picaridin, which is believed to have a similar protection to DEET, was given the same protection time as DEET (17.5 days). […] While this is a very rough approximation, it is sufficiently accurate for training.

[5] = test system: trichoid sensillum housed odor receptor, which is also activated by DEET; conditions: compared with DEET; cited from earlier work
[6] = test system: insects; conditions: in vivo; cited from earlier work

Chain of acetylcholoinesterase (P22303 32-614): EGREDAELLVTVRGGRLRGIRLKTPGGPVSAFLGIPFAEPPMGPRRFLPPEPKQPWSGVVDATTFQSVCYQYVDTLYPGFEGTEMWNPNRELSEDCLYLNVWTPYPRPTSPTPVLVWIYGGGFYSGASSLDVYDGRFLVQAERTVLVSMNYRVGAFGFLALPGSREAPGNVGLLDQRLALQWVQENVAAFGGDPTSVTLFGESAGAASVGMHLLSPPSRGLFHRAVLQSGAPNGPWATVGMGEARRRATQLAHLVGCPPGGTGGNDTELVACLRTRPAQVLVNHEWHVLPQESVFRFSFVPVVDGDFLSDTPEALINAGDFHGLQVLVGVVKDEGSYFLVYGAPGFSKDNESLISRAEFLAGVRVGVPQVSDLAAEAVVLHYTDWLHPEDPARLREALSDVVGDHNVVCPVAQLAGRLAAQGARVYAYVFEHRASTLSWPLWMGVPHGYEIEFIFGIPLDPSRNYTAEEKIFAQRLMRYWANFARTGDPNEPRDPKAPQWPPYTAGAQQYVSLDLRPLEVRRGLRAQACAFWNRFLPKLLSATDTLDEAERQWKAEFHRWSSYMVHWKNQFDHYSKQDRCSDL

Row | SMILES | protection time given for training (same as DEET, very rough approximation) [4] [days] | activation of DEET-activated odor receptor / DEET receptive neuron [5] | also measured
1 | CCN(CC)C(=O)c1cccc(C)c1 [DEET, N,N-diethyl-3-methylbenzamide] | – | – | protection time [1]: 17.5 days; inhibition of acetylcholinesterase [2]: inhibit; irritation [3]: act as an irritant
2 | CC12CCC(CC1)C(C)(C)O2 [Eucalyptol] | 17.5 | more strongly than DEET | –
3 | CCC(C)OC(=O)N1CCCCC1CCO (stereo not shown) [Icaridin] | 17.5 | – | effectiveness at repelling insects compared with DEET [6]: as effective as DEET; irritation [3]: less irritating than DEET
4 | CC(C)[C@]12CC(=O)[C@H](C)[C@H]1C2 [alpha-thujone] | 17.5 | – | –
5 | CC1C(=O)CC2(C(C)C)CC12 (stereo not drawn) [beta-thujone] | 17.5 | – | –
6 | C=CC(C)(O)CCC=C(C)C (stereo not shown) [linalool] | 17.5 | more strongly than DEET | –
7 | CC(C)[C@]12CC(=O)[C@H](C)[C@H]1C2 [thujone] | – | more strongly than DEET | –
